Laboratory results from patent publication EP0109362A1, “Hetereocyclic compounds, process for their preparation, pharmaceutical compositions containing them and their use” (CIBA-GEIGY AG, priority 1982, dated 1984).
Values after ≈ are worked out from the molar mass of the structure shown. Where two headings read alike, the source gives them in different places.

Tests used:
[1] = tested on: Staphylococcus aureus 10 B; test: in vitro antibacterial test (MIC); type: cell-based
[2] = tested on: Staphylococcus aureus 2999i+p+; test: in vitro antibacterial test (MIC); type: cell-based
[3] = tested on: Streptococcus pyogenes Aronson; test: in vitro antibacterial test (MIC); type: cell-based
[4] = tested on: Streptococcus pneumoniae III/84; test: in vitro antibacterial test (MIC); type: cell-based
[5] = tested on: Streptococcus faecalis D 3; test: in vitro antibacterial test (MIC); type: cell-based; details: Enterococcus faecalis, D3
[6] = tested on: Neisseria meningitidis 1316; test: in vitro antibacterial test (MIC); type: cell-based
[7] = tested on: Neisseria gonorrhoeae 1317-4; test: in vitro antibacterial test (MIC); type: cell-based; details: 13174
[8] = tested on: Haemophilus influenzae NCTC 4560; test: in vitro antibacterial test (MIC); type: cell-based; details: NCTC4560
Escherichia coli 205 = test: in vitro antibacterial test (MIC); type: cell-based
[9] = tested on: Escherichia coli 205 R+TEM; test: in vitro antibacterial test (MIC); type: cell-based
Escherichia coli 16 = test: in vitro antibacterial test (MIC); type: cell-based
Escherichia coli DC 2 = test: in vitro antibacterial test (MIC); type: cell-based; details: DC2; Escherichia coli DC 2, in vitro
Excerpt: (§1) Die Verbindungen der Formel I weisen wertvolle pharmakologische Eigenschaften auf, oder können als Zwischenprodukte zur Herstellung von solchen Verbindungen mit wertvollen pharmakologischen Eigenschaften verwendet werden. Verbindungen der Formel I, worin R1 Wasserstoff oder Methyl ist, Rz Hydroxybedeutet, R3 Carboxyl oder eine unter physiologischen Bedingungen spaltbare veresterte Carboxylgruppe bedeutet und R4 die unter Formel I angegebene Bedeutung hat, und pharmakologisch verwendbare Salze von solchen Verbindungen mit salzbildenden Gruppen haben antibakterielle Wirkungen. Beispielsweise sind sie in vitro gegen grampositive und gramnegative Kokken, z.B. Staphylococcus aureus, Streptococcus pyogenes, Streptococcus pneumoniae, Streptococcus faecalis, Neisseria meningitidis und Neisseria gonorrhoeae, und gegen gramnegative Stäbchenbakterien, wie Enterobacteriaceae, Haemophilus influenzae und Pseudomonas aeruginosa, und Anaerobier, z.B. Bacteroides sp., in minimalen Konzentrationen von ca. 0,01 bis ca. 64 µg/ml wirksam. In vivo, bei der systemischen Infektion der Maus, z.B. durch Staphylococcus aureus oder Streptococcus pyogenes, ergeben sich bei subkutaner oder oraler Applikation ED50 -Werte von ca. 0,3 bis ca. 30 mg/kg. Beispielsweise weisen Natrium-(5R,6S)-2-[3-(2-methyl-tetrazol-5-yl)-propyl]-6-hydroxymethyl-2-penem 3-carboxylat (Verbindung A) und (5R,65)-2-[3-(2-Methyl-1,3,4-oxadiazo1-5-yl)-propyl]-6-hydroxymethyl-2-penem-3-carbonsäure (Verbindung B) in dem genannten in-vitro-Test die folgenden Werte auf: […]

Escherichia coli UB 1005 = test: in vitro antibacterial test (MIC); type: cell-based; details: UB1005; Escherichia coli UB 1005, in vitro
Excerpt: as §1

[10] = tested on: Klebsiella pneumoniae 327; test: in vitro antibacterial test (MIC); type: cell-based
Serratia marcescens 344 = test: in vitro antibacterial test (MIC); type: cell-based
[11] = tested on: Enterobacter cloacae P 99; test: in vitro antibacterial test (MIC); type: cell-based; details: P99
Proteus mirabilis 774 = test: in vitro antibacterial test (MIC); type: cell-based
Proteus mirabilis 1219 = test: in vitro antibacterial test (MIC); type: cell-based
Proteus rettgeri 856 = test: in vitro antibacterial test (MIC); type: cell-based; details: Providencia rettgeri
Proteus morganii 2359 = test: in vitro antibacterial test (MIC); type: cell-based; details: Morganella morganii
Proteus morganii 1518 = test: in vitro antibacterial test (MIC); type: cell-based; details: Morganella morganii
[12] = tested on: Pseudomonas aeruginosa ATCC 12055; test: in vitro antibacterial test (MIC); type: cell-based; details: ATCC12055
[13] = tested on: Pseudomonas aeruginosa K 799/61; test: in vitro antibacterial test (MIC); type: cell-based; details: K799/61
[14] = tested on: Clostridium perfringens 194; test: microbe, parasite or virus in culture; type: cell-based
[15] = tested on: Bacteroides fragilis L 01; test: in vitro antibacterial test (MIC); type: cell-based; details: L01
[16] = tested on: Staphylococcus aureus lOB; test: systemic infection of the mouse (ED50); type: in vivo, Maus; details: sc
Excerpt: as §1, with “mg/kg.” for “mg/kg. Beispielsweise weisen Natrium-(5R,6S)-2-[3-(2-methyl-tetrazol-5-yl)-propyl]-6-hydroxymethyl-2-penem 3-carboxylat (Verbindung A) und (5R,65)-2-[3-(2-Methyl-1,3,4-oxadiazo1-5-yl)-propyl]-6-hydroxymethyl-2-penem-3-carbonsäure (Verbindung B) in dem genannten in-vitro-Test die folgenden Werte auf:”

Question: For `Cn1nnc(CCCC2=C(C(=O)[O-])N3C(=O)[C@H](CO)[C@H]3S2)n1.[Na+]` [Verbindung A, Natrium-(5R,6S)-2-[3-(2-methyl-tetrazol-5-yl)-propyl]-6-hydroxymethyl-2-penem 3-carboxylat], which MIC ([1]; Staphylococcus aureus, 10B) is on record?
Answer: 0.2 µg/mL

Question: And the MIC ([2]; Staphylococcus aureus)?
Answer: 0.2 µg/mL

Question: What about the MIC ([3]; Streptococcus pyogenes) of the same molecule?
Answer: 0.2 µg/mL

Question: What about the MIC ([4]; Streptococcus pneumoniae) of the same molecule?
Answer: 0.05 µg/mL

Question: What about the MIC [5] of the same molecule?
Answer: 32 µg/mL

Question: What about the MIC ([6]; Neisseria meningitidis, 1316) of the same molecule?
Answer: 0.01 µg/mL

Question: What about the MIC ([7]; Neisseria gonorrhoeae) of the same molecule?
Answer: 0.01 µg/mL

Question: And the MIC ([8]; Haemophilus influenzae)?
Answer: 2 µg/mL

Question: And the MIC (Escherichia coli 205; Escherichia coli, 205)?
Answer: 4 µg/mL

Question: And the MIC [9]?
Answer: 8 µg/mL

Question: And the MIC (Escherichia coli 16; Escherichia coli, 16)?
Answer: 32 µg/mL

Question: And the MIC (Escherichia coli DC 2)?
Answer: 2 µg/mL

Question: And the MIC (Escherichia coli UB 1005)?
Answer: 8 µg/mL

Question: And the MIC ([10]; Klebsiella pneumoniae, 327)?
Answer: 4 µg/mL

Question: And the MIC (Serratia marcescens 344; Serratia marcescens, 344)?
Answer: 64 µg/mL

Question: What about the MIC [11] of the same molecule?
Answer: 32 µg/mL

Question: What about the MIC (Proteus mirabilis 774; Proteus mirabilis, 774) of the same molecule?
Answer: 4 µg/mL

Question: What about the MIC (Proteus mirabilis 1219; Proteus mirabilis, 1219) of the same molecule?
Answer: 8 µg/mL

Question: What about the MIC (Proteus rettgeri 856; 856) of the same molecule?
Answer: 16 µg/mL

Question: And the MIC (Proteus morganii 2359; 2359)?
Answer: 2 µg/mL

Question: And the MIC (Proteus morganii 1518; 1518)?
Answer: 16 µg/mL

Question: What about the MIC ([12]; Pseudomonas aeruginosa) of the same molecule?
Answer: > 128 µg/mL

Question: What about the MIC [13] of the same molecule?
Answer: 2 µg/mL

Question: And the MIC [14]?
Answer: 0.2 µg/mL

Question: And the MIC ([15]; Bacteroides fragilis)?
Answer: 0.5 µg/mL

Question: And the ED50 ([16]; Staphylococcus aureus)?
Answer: 3 to 10 mg/kg

Question: What does the source list for `Cc1nnc(CCCC2=C(C(=O)O)N3C(=O)[C@H](CO)[C@H]3S2)o1` [Verbindung B, (5R,65)-2-[3-(2-Methyl-1,3,4-oxadiazo1-5-yl)-propyl]-6-hydroxymethyl-2-penem-3-carbonsäure]?
Answer: MIC ([1]; Staphylococcus aureus 10 B, in vitro, read-out: MIC): 0.2 µg/mL (≈ 0.615 µM); MIC ([2]; Staphylococcus aureus 2999i+p+, in vitro, read-out: MIC): 0.2 µg/mL (≈ 0.615 µM); MIC ([3]; Streptococcus pyogenes Aronson, in vitro, read-out: MIC): 0.1 µg/mL (≈ 0.307 µM); MIC ([4]; Streptococcus pneumoniae III/84, in vitro, read-out: MIC): 0.05 µg/mL (≈ 0.154 µM); MIC ([5]; Streptococcus faecalis D 3, in vitro, read-out: MIC): 32 µg/mL (≈ 98.4 µM); MIC ([6]; Neisseria meningitidis 1316, in vitro, read-out: MIC): 0.05 µg/mL (≈ 0.154 µM); MIC ([7]; Neisseria gonorrhoeae 1317-4, in vitro, read-out: MIC): 0.01 µg/mL (≈ 0.0307 µM); MIC ([8]; Haemophilus influenzae NCTC 4560, in vitro, read-out: MIC): 2 µg/mL (≈ 6.15 µM); MIC (Escherichia coli 205; Escherichia coli 205, in vitro, read-out: MIC): 1 µg/mL (≈ 3.07 µM); MIC [9]: 4 µg/mL (≈ 12.3 µM); MIC (Escherichia coli 16; Escherichia coli 16, in vitro, read-out: MIC): 16 µg/mL (≈ 49.2 µM); MIC (Escherichia coli DC 2): 1 µg/mL (≈ 3.07 µM); MIC (Escherichia coli UB 1005): 2 µg/mL (≈ 6.15 µM); MIC ([10]; Klebsiella pneumoniae 327, in vitro, read-out: MIC): 2 µg/mL (≈ 6.15 µM); MIC (Serratia marcescens 344; Serratia marcescens 344, in vitro, read-out: MIC): 16 µg/mL (≈ 49.2 µM); MIC [11]: 16 µg/mL (≈ 49.2 µM); MIC (Proteus mirabilis 774; Proteus mirabilis 774, in vitro, read-out: MIC): 2 µg/mL (≈ 6.15 µM); MIC (Proteus mirabilis 1219; Proteus mirabilis 1219, in vitro, read-out: MIC): 4 µg/mL (≈ 12.3 µM); MIC (Proteus rettgeri 856; Proteus rettgeri 856, in vitro, read-out: MIC): 4 µg/mL (≈ 12.3 µM); MIC (Proteus morganii 2359; Proteus morganii 2359, in vitro, read-out: MIC): 2 µg/mL (≈ 6.15 µM); MIC (Proteus morganii 1518; Proteus morganii 1518, in vitro, read-out: MIC): 8 µg/mL (≈ 24.6 µM); MIC ([12]; Pseudomonas aeruginosa ATCC 12055, in vitro, read-out: MIC): > 32 µg/mL; MIC [13]: 2 µg/mL (≈ 6.15 µM); MIC [14]: 0.1 µg/mL (≈ 0.307 µM); MIC ([15]; Bacteroides fragilis L 01, in vitro, read-out: MIC): 0.5 µg/mL (≈ 1.54 µM); ED50 ([16]; mouse, systemic infection by Staphylococcus aureus lOB, subcutaneous application, read-out: ED50): 0.3 to 30 mg/kg
